HELM strings list units from the 5' end as sugar, base in round brackets, then linkage (d deoxyribose, r ribose, m 2'-O-methyl, p phosphodiester). Strings are as the collection lists them, not checked against the first reports. ss, as = sense and antisense strand; [lna] = locked nucleic acid (LNA); [hna] = hexitol nucleic acid; [s4r] = 4'-thioribose; [fl2r] = 2'-fluoro
Also: test system not given here.

For the data set the following is noted: siRNA.
Regarding “RNA1{r(G)p.r(A)p.r(G)p.r(A)p.r(G)p.r(A)p.r(G)p.r(A)p.r(C)p.r(G)p.r(G)p.r(U)p.r(G)p.r(G)p.r(A)p.r(A)p.r(G)p.r(A)p.r(A)p.r(T)p.r(T)}|RNA2{r(U)p.r(U)p.r(C)p.r(U)p.r(U)p.r(C)p.r(C)p.m(A)p.r(C)p.r(C)p.r(G)p.r(U)p.r(C)p.r(U)p.r(C)p.r(U)p.r(C)p.r(U)p.r(C)p.r(T)p.r(T)}$$$RNA1{StrandType:ss}|RNA2{StrandType:as}$”, the target mRNA knockdown came to 74%.

“RNA1{r(G)p.r(G)p.r(C)p.r(C)p.r(U)p.r(U)p.r(U)p.r(C)p.r(U)p.r(C)p.r(U)p.r(C)p.m(U)p.r(A)p.r(G)p.r(A)p.m(U)p.r(A)p.r(U)p.r(T)p.r(T)}|RNA2{r(A)p.m(U)p.r(A)p.r(U)p.r(C)p.m(U)p.r(A)p.r(G)p.r(A)p.r(G)p.r(A)p.r(G)p.r(A)p.r(A)p.r(A)p.r(G)p.r(G)p.r(C)p.r(C)p.r(T)p.r(T)}$$$RNA1{StrandType:ss}|RNA2{StrandType:as}$”: the target mRNA knockdown stood at 89%. In turn, “RNA1{r(G)p.[hna](A)p.r(C)p.r(G)p.r(U)p.r(A)p.r(A)p.[hna](A)p.r(C)p.r(G)p.r(G)p.r(C)p.r(C)p.[hna](A)p.r(C)p.r(A)p.[hna](A)p.r(G)p.r(U)p.r(U)p.r(C)}|RNA2{r(A)p.m(C)p.r(U)p.r(U)p.r(G)p.r(U)p.r(G)p.r(G)p.r(C)p.r(C)p.r(G)p.r(U)p.r(U)p.r(U)p.r(A)p.r(C)p.r(G)p.r(U)p.r(C)p.r(G)p.r(C)}$$$RNA1{StrandType:ss}|RNA2{StrandType:as}$” registered a target mRNA knockdown of 54.2%. As to “RNA1{r(G)p.r(A)p.r(C)p.r(G)p.[hna](U)p.r(A)p.r(A)p.[hna](A)p.r(C)p.r(G)p.[hna](G)p.r(C)p.r(C)p.[hna](A)p.r(C)p.r(A)p.r(A)p.r(G)p.[hna](U)p.[hna](U)p.d(T)}|RNA2{r(A)p.r(C)p.r(U)p.r(U)p.r(G)p.r(U)p.r(G)p.r(G)p.r(C)p.r(C)p.r(G)p.r(U)p.r(U)p.r(U)p.r(A)p.r(C)p.r(G)p.r(U)p.r(C)p.r(G)p.r(C)}$$$RNA1{StrandType:ss}|RNA2{StrandType:as}$”, the target mRNA knockdown is 87.4%. Then “RNA1{[fl2r](U)p.r(C)p.[fl2r](C)p.r(U)p.[fl2r](C)p.r(G)p.[fl2r](U)p.r(C)p.[fl2r](G)p.r(U)p.[fl2r](C)p.r(U)p.[fl2r](G)p.r(U)p.[fl2r](U)p.r(C)p.[fl2r](U)p.r(A)p.[fl2r](A)p.r(T)p.r(T)}|RNA2{r(U)p.r(U)p.r(A)p.r(G)p.r(A)p.r(A)p.[fl2r](C)p.r(A)p.r(G)p.r(A)p.[fl2r](C)p.r(G)p.r(A)p.[fl2r](C)p.r(G)p.r(A)p.r(G)p.r(G)p.r(A)p.r(T)p.r(T)}$$$RNA1{StrandType:ss}|RNA2{StrandType:as}$”, with 49%; and “RNA1{r(U)p.r(C)p.r(C)p.r(U)p.r(C)p.r(G)p.r(U)p.m(C)p.r(G)p.r(U)p.r(C)p.m(U)p.r(G)p.r(U)p.r(U)p.r(C)p.m(U)p.r(A)p.r(A)p.r(T)p.r(T)}|RNA2{r(U)p.m(U)p.r(A)p.r(G)p.r(A)p.r(A)p.m(C)p.r(A)p.r(G)p.r(A)p.r(C)p.r(G)p.r(A)p.r(C)p.r(G)p.r(A)p.r(G)p.r(G)p.r(A)p.r(T)p.r(T)}$$$RNA1{StrandType:ss}|RNA2{StrandType:as}$”, with 82%. “RNA1{r(C)p.r(U)p.r(U)p.r(A)p.r(C)p.r(G)p.r(C)p.r(U)p.r(G)p.r(A)p.r(G)p.r(U)p.r(A)p.r(C)p.r(U)p.r(U)p.r(C)p.r(G)p.r(A)p.r(T)p.r(T)}|RNA2{r(U)p.[lna](C)p.r(G)p.r(A)p.r(A)p.r(G)p.r(U)p.r(A)p.r(C)p.r(U)p.r(C)p.r(A)p.r(G)p.r(C)p.r(G)p.r(U)p.r(A)p.r(A)p.r(G)p.r(T)p.r(T)}$$$RNA1{StrandType:ss}|RNA2{StrandType:as}$” came in with a target mRNA knockdown of 0%. With “RNA1{[s4r](A)p.[s4r](A)p.[s4r](A)p.[s4r](C)p.r(A)p.r(U)p.r(G)p.r(C)p.r(A)p.r(G)p.r(A)p.r(A)p.r(A)p.r(A)p.r(U)p.[s4r](G)p.[s4r](C)p.[s4r](C)p.[s4r](U)p.r(T)p.r(T)}|RNA2{r(C)p.r(A)p.r(G)p.r(C)p.r(A)p.r(U)p.r(U)p.r(U)p.r(U)p.r(C)p.r(U)p.r(G)p.r(C)p.r(A)p.r(U)p.r(G)p.r(U)p.[s4r](U)p.[s4r](U)p.r(T)p.r(T)}$$$RNA1{StrandType:ss}|RNA2{StrandType:as}$” the figure was 87.7%. Then “RNA1{[fl2r](C)p.r(G)p.[fl2r](A)p.r(A)p.[fl2r](A)p.r(G)p.[fl2r](U)p.r(G)p.[fl2r](U)p.r(A)p.[fl2r](U)p.r(C)p.[fl2r](C)p.r(G)p.[fl2r](A)p.r(A)p.[fl2r](G)p.r(A)p.[fl2r](C)p.r(T)p.r(T)}|RNA2{[fl2r](G)p.r(U)p.r(C)p.r(U)p.r(U)p.r(C)p.[fl2r](G)p.[fl2r](G)p.r(A)p.r(U)p.r(A)p.r(C)p.r(A)p.r(C)p.r(U)p.r(U)p.r(U)p.r(C)p.[fl2r](G)p.r(T)p.r(T)}$$$RNA1{StrandType:ss}|RNA2{StrandType:as}$”, with 41%; and “RNA1{m(U)p.r(G)p.m(A)p.r(A)p.m(C)p.r(G)p.m(U)p.r(C)p.m(A)p.r(C)p.m(C)p.r(G)p.m(A)p.r(G)p.m(G)p.r(A)p.m(G)p.r(A)p.m(A)p.r(T)p.r(T)}|RNA2{r(U)p.r(U)p.r(C)p.r(U)p.r(C)p.r(C)p.r(U)p.r(C)p.r(G)p.r(G)p.r(U)p.r(G)p.m(A)p.r(C)p.r(G)p.r(U)p.r(U)p.r(C)p.m(A)p.r(T)p.r(T)}$$$RNA1{StrandType:ss}|RNA2{StrandType:as}$”, with 65%; and “RNA1{[fl2r](G)p.r(G)p.[fl2r](C)p.r(U)p.[fl2r](U)p.r(A)p.[fl2r](G)p.r(U)p.[fl2r](C)p.r(A)p.[fl2r](C)p.r(U)p.[fl2r](C)p.r(C)p.[fl2r](U)p.r(C)p.[fl2r](U)p.r(U)p.[fl2r](C)p.r(T)p.r(T)}|RNA2{r(G)p.r(A)p.r(A)p.r(G)p.r(A)p.r(G)p.r(G)p.r(A)p.r(G)p.r(U)p.r(G)p.r(A)p.r(C)p.r(U)p.r(A)p.r(A)p.r(G)p.r(C)p.r(C)p.r(T)p.r(T)}$$$RNA1{StrandType:ss}|RNA2{StrandType:as}$”, with 23%. “RNA1{r(C)p.m(U)p.r(A)p.r(C)p.r(C)p.r(U)p.r(U)p.r(C)p.r(U)p.r(C)p.r(C)p.r(U)p.r(C)p.r(U)p.r(U)p.r(C)p.r(U)p.r(C)p.r(C)p.r(T)p.r(T)}|RNA2{r(G)p.r(G)p.r(A)p.r(G)p.r(A)p.r(A)p.r(G)p.r(A)p.r(G)p.r(G)p.r(A)p.r(G)p.r(A)p.r(A)p.r(G)p.r(G)p.m(U)p.r(A)p.r(G)p.r(T)p.r(T)}$$$RNA1{StrandType:ss}|RNA2{StrandType:as}$”: the target mRNA knockdown stood at 69%. Then “RNA1{[fl2r](G)p.m(A)p.[fl2r](C)p.m(G)p.[fl2r](U)p.m(A)p.[fl2r](A)p.m(A)p.[fl2r](C)p.m(G)p.[fl2r](G)p.m(C)p.[fl2r](C)p.m(A)p.[fl2r](C)p.m(A)p.[fl2r](A)p.m(G)p.[fl2r](U)p.m(U)p.[fl2r](C)}|RNA2{[fl2r](A)p.m(C)p.[fl2r](U)p.m(U)p.[fl2r](G)p.m(U)p.[fl2r](G)p.m(G)p.[fl2r](C)p.m(C)p.[fl2r](G)p.m(U)p.[fl2r](U)p.m(U)p.[fl2r](A)p.m(C)p.[fl2r](G)p.m(U)p.[fl2r](C)p.m(G)p.[fl2r](C)}$$$RNA1{StrandType:ss}|RNA2{StrandType:as}$”, with 23.8%.

For the origin of these results see the OligoGym collection.
